Several values for one entry are separate records, joined by “and”; a condition that tells them apart may be missing. Equal values may be shown once. Read-outs that look alike come from different tables or passages of the source.
Experiments:
[1] = tested on: protein aggregation in substantia nigra; assay: Thioflavin S staining of substantia nigra of ASIA-treated rats; assay type: in vivo, rat
Procedure: (§1) Rats are subjected to 7-day chronic injection of 3 mg/kg of each test compound, and a forced swim test is conducted after the seventh day to measure motor deficits. […] For a second round of studies, rats are divided into four treatment groups, and the same experiments were repeated:
Tissue sections of substantia nigra from each of the treatment groups in the rat studies were evaluated for the presence of tyrosine hydroxylase, DNA (using the nuclear stain DAPI) and alpha-synuclein using immunohistochemistry. After behavioural tests were completed, the rats were euthanized, perfused and fixed in 4% paraformaldehyde. 40 μm brain slices were utilized for the immunohistochemistry procedure. Anti-Tyrosine Hydroxylase—a primary antibody for tyrosine positive neurons, host species rabbit, Millipore, Sigma Aldrich. DAPI—nuclear stain already pre-conjugated (NucBlue Fixed Cell Stain ReadyProbe reagent, Thermo Fisher Scientific). Anti-Alpha Synuclein—primary antibody for Anti-Synuclein, host species mouse, Abcam. Primary antibodies were diluted 1:500. Alexa Fluoro 488 Donkey anti-rabbit IgG—secondary antibody with fluorescent tag, Invitrogen, Thermo Fisher Scientific. Alexa Fluoro 594 Goat anti-mouse IgG—secondary antibody with fluorescent tag, Life Technologies, Thermo Fisher Scientific. Secondary antibodies were diluted 1:1000. Thioflavin S—stain for alpha-synuclein aggregates, Sigma Aldrich. […]

alpha-synuclein [2] = molecular target: T1, alpha-synuclein (Homo sapiens, UniProt P37840); assay: Isothermal titration calorimetry (ITC) binding to alpha-synuclein; settings: for increase of Ka for a 10-fold decrease in ionic strength: 100 mM KCl versus 1.0M KCl; for # Binding sites: Table 2; for Bind to N and C?: binds to both N and C portions of alpha-synuclein; for binding constants as measured by ITC, order of magnitude: summary statement; for Kd: read-out: Ka (converted); for Bind to N and C?: key: Y indicates yes; N indicates no
Procedure: (§2) Nanopore analysis and isothermal titration calorimetry were performed as described previously.^21,54

[3] = tested on: preformed alpha-synuclein-GFP foci in yeast strain 2AS; assay: Yeast recovery assay, fluorescence microscopy of preformed AS-GFP foci; assay type: cell-based; settings: for effect on preformed large foci of alpha-synuclein: compound added 6 hours after induction with 5 mM galactose
Procedure: (§3) For Analysis of AS-GFP distribution, the 2AS strain was grown overnight in drop-out media. After normalization of culture density, galactose was administered to a final concentration of 5 mM. Fluorescence images were obtained at zero time, 3 hours, 6 hours, 9 hours and 12 hours. For the yeast recovery assay, yeast cells were obtained after 6 hours induction with 5 mM galactose concentration, washed in galactose free media and the compounds were added to a final concentration of 1 micromolar in a 2 mL reaction mixture. The culture was incubated at 30° C. for 3, 6, and 9 hour intervals. Images were obtained at each interval using an Olympus Infinity (BX51) fluorescence microscope at 100× magnification.

alpha-synuclein [4] = molecular target: T1, alpha-synuclein; assay: Nanopore analysis of alpha-synuclein (blockade current histograms); assay type: binding; settings: 1 micromolar alpha-synuclein, 20 micromolar compound; for nanopore profile (bumping peak / binding): FIG. 3
Procedure: The bifunctional molecules were characterized by four different methods. […] If the compound causes a more compact conformation, then the alpha-synuclein can no longer translocate and it simply bumps into the pore giving rise to a very small change in the blockade current.^44-46
as §2

[5] = tested on: alpha-synuclein in substantia nigra; assay: Immunohistochemistry of alpha-synuclein in substantia nigra of ASIA-treated rats; assay type: in vivo, rat; settings: 7 days of chronic injections
Procedure: (§4) male Sprague-Dawley rats are used (200 g-300 g). All animals are handled ethically following approved protocols. For the first round of studies, rats are divided into five treatment groups:
as §1
Tissue sections of substantia nigra from each of the treatment groups in the rat studies were evaluated for the presence of tyrosine hydroxylase, DNA (using the nuclear stain DAPI) and alpha-synuclein using immunohistochemistry. After behavioural tests were completed, the rats were euthanized, perfused and fixed in 4% paraformaldehyde. 40 μm brain slices were utilized for the immunohistochemistry procedure. Anti-Tyrosine Hydroxylase—a primary antibody for tyrosine positive neurons, host species rabbit, Millipore, Sigma Aldrich. DAPI—nuclear stain already pre-conjugated (NucBlue Fixed Cell Stain ReadyProbe reagent, Thermo Fisher Scientific). Anti-Alpha Synuclein—primary antibody for Anti-Synuclein, host species mouse, Abcam. Primary antibodies were diluted 1:500. Alexa Fluoro 488 Donkey anti-rabbit IgG—secondary antibody with fluorescent tag, Invitrogen, Thermo Fisher Scientific. Alexa Fluoro 594 Goat anti-mouse IgG—secondary antibody with fluorescent tag, Life Technologies, Thermo Fisher Scientific. Secondary antibodies were diluted 1:1000. Thioflavin S—stain for alpha-synuclein aggregates, Sigma Aldrich. Thioflavin S stock concentration at 5 mg/ml. Final dilution 1:100.
Tyrosine hydroxylase is a marker for dopaminergic neurons and is used to confirm that the desired cells are being imaged. DAPI (4′,6-diamidino-2-phenylindole) is a stain that binds to A-T rich regions in DNA, and is used to identify cell nuclei. Thioflavin S is used to stain aggregated proteins such as amyloid plaques. A higher level of staining with thioflavin S is indicative of a higher degree of protein aggregation.

[6] = tested on: male Sprague-Dawley rats with increased alpha-synuclein expression; assay: Forced swim test in ASIA-treated rats; assay type: in vivo, rat; settings: for success in forced swim test / vigor in forced swim test: last three minutes of the test
Procedure: as §4, §1
The forced swim test is carried out by immersing the rat in water that is sufficiently deep to force the rat to swim. The forced swim test is scored based on the following criteria:
Vigor and success are measures of motor function. Immobility is thought to be a measure of depression.^59 Based on videos of the forced swim test, the amount of time that each rat was motionless was calculated as a form of scoring depression for each treatment. Statistical analysis was carried out using an ordinary one-way ANOVA and Tukey multiple comparisons test.

[7] = tested on: yeast strain 2AS (2 copies of AS-GFP gene); assay type: cell-based
Procedure: (§5) Third, the drugs were assayed in a yeast model of Parkinson's Disease, which expresses an alpha-synuclein-Green Fluorescent Protein (AS-GFP) construct under the control of a galactose promoter.
Construction of the 1AS and 2AS strains has been described in detail previously.^55 Strains were grown in YPD supplemented with 30 μg/ml of all amino acids. The OD600 was adjusted to 0.05 in drop-out media (no uracil) at 30° C. Drugs were dissolved in methanol at 0.01 micromolar, 0.1 micromolar, 1 micromolar or 10 micromolar followed by addition of 100 micromolar or 5 mM galactose to a final volume of 10 mL.

yeast strain 2AS = assay: Yeast recovery assay, growth of 2AS after 6 hours galactose induction; assay type: cell-based
[8] = tested on: alpha-synuclein-GFP aggregation in yeast strain 2AS; assay type: cell-based; settings: 1 micromolar compound, 5 mM galactose; for AS-GFP foci / fluorescence pattern: up to 12 hours
Procedure: as §5
as §3, with “Fluorescence images were obtained at zero time, 3 hours, 6 hours, 9 hours and 12 hours.” left out

alpha-synuclein [9] = molecular target: T1, alpha-synuclein; settings: 10 micromolar compound, shown previously; cited from earlier work
WT yeast = assay: Yeast growth curves (OD600), toxicity of drugs on WT yeast; assay type: cell-based; parameters: effect on growth of WT yeast: dose or concentration left out as unconfirmed; settings: for effect on growth of WT yeast: no alpha-synuclein
[10] = ITC in 1.0M KCl, bifunctional molecules (or monomers) per alpha-synuclein molecule, best fit
[11] = 1 micromolar compound added after 6 hours of 5 mM galactose and wash
[12] = 1 micromolar compound + 5 mM galactose
[13] = 1 micromolar compound + 100 micromolar galactose

Compound | increase of Ka for a 10-fold decrease in ionic strength (alpha-synuclein [2]) | # of Binding sites (alpha-synuclein [2]; ITC in 100 mM KCl) | Ka (alpha-synuclein [2]; ITC in 100 mM KCl) [M⁻¹] | Ka (alpha-synuclein [2]; ITC in 1.0M KCl) | # of Binding sites (alpha-synuclein [2]; [10]) | # Binding sites (alpha-synuclein [2]) | Ka (alpha-synuclein [2]; Table 2, ITC) [M⁻¹] | Bind to N and C? (alpha-synuclein [2]) | nanopore profile (bumping peak / binding) (alpha-synuclein [4]) | AS-GFP foci / fluorescence pattern [8] | growth of 2AS yeast [7, 13] | further results
Cn1c(=O)c2c(nc(CCCCCCNC3CCc4ccccc43)n2C)n(C)c1=O (racemic) [Compound C8-6-I] | approximately 10 fold | 1 | 560000 | 53000 M⁻¹ | 1 | 1 | 53000 | Y | do not have a significant bumping peak | by 12 hours the peripheral halo is restored | – | degree of protein aggregation, thioflavin S staining ([1]; ASIA + compound 3 mg/kg): decreases the degree of protein aggregation; degree of protein aggregation, thioflavin S staining ([1]; ASIA + compound 5 mg/kg): decreases the degree of protein aggregation; binding constants as measured by ITC, order of magnitude (alpha-synuclein [2]): ~10^5 M^−1; fluorescence pattern after compound addition to cells with preformed foci [3, 11]: By 9 hours, the peripheral location is restored and the halo reappears; effect on preformed large foci of alpha-synuclein [3]: can cause preformed large foci of alpha-synuclein to dissipate; major peak, blockade current (alpha-synuclein [4]): −68 pA; level of alpha-synuclein staining in substantia nigra ([5]; ASIA + compound 3 mg/kg): reduced; level of alpha-synuclein staining in substantia nigra ([5]; ASIA + compound 5 mg/kg): reduced; immobility in forced swim test ([6]; ASIA + compound 3 mg/kg): improved; success in forced swim test ([6]; ASIA + compound 3 mg/kg): improved success; vigor in forced swim test ([6]; ASIA + compound 3 mg/kg): improved vigor; immobility in forced swim test ([6]; ASIA + compound 5 mg/kg): further improved; success in forced swim test ([6]; ASIA + compound 5 mg/kg): further improved success; vigor in forced swim test ([6]; ASIA + compound 5 mg/kg): further improved vigor; growth of 2AS yeast ([7]; 0.1 micromolar compound + 5 mM galactose): normal growth; growth of 2AS yeast [7, 12]: essentially normal; time of resumption of growth (yeast strain 2AS; [11]): ~8 h; time of resumption of growth (yeast strain 2AS; 10 micromolar compound added after 6 hours of 5 mM galactose and wash): about 6 hours
Cn1c(=O)c2c(nc(CCCCCCN3CCCC3c3cccnc3)n2C)n(C)c1=O (racemic) [Compound C8-6-N] | approximately 10 fold | 1 | 480000 | 43000 M⁻¹ | 1 | 1 | 43000 | Y | do not have a significant bumping peak | similar | – | binding constants as measured by ITC, order of magnitude (alpha-synuclein [2]): ~10^5 M^−1; effect on preformed large foci of alpha-synuclein [3]: can cause preformed large foci of alpha-synuclein to dissipate; major peak, blockade current (alpha-synuclein [4]): −55 pA; growth of 2AS yeast [7, 12]: essentially normal
Cn1c(=O)c2c(ncn2C)n(C)c1=O [Caffeine, caffeine, reference compound] | – | – | – | – | 1 | 1 | – | Y | – | – | – | major peak, blockade current, compound alone (alpha-synuclein [9]): about −76 pA; formation of foci delayed until (time after induction) [8]: 9 h
NC1Cc2ccccc2C1 [Compound 2-aminoindan, 2-aminoindan, reference compound] | – | – | – | – | – | – | – | – | – | – | – | level of alpha-synuclein staining in substantia nigra ([5]; ASIA + compound 3 mg/kg): considerably increased; immobility in forced swim test ([6]; ASIA + compound 3 mg/kg): significantly increases immobility; success in forced swim test ([6]; ASIA + compound 3 mg/kg): decreased success; vigor in forced swim test ([6]; ASIA + compound 3 mg/kg): decreased vigor
Cn1c(=O)c2c(nc(CCCCCCc3nc4c(c(=O)n(C)c(=O)n4C)n3C)n2C)n(C)c1=O [Compound C8-6-C8] | does not increase | 0.25 | 1.8e+08 | 2e+08 M⁻¹ and 280000 M⁻¹ | 0.25 | 0.25 | 2e+08 | Y | predominantly bumping peaks | – | – | toxicity on WT yeast (WT yeast; 100 micromolar compound): toxic; lag before growth rescue / reaching the growth plateau [7, 12]: about 6 hours
CN(C)C(=N)N=C(N)N [Metformin, metformin, reference compound] | – | – | – | – | 1 | 3 | – | N | – | – | rate of growth which is similar to that shown by the WT strain | Kd (alpha-synuclein [2]; ITC in 1.0M KCl): 109 nM; Kd (alpha-synuclein [2]; Table 2, ITC): 111 nM; major peak, blockade current, compound alone (alpha-synuclein [9]): about −65 pA; formation of foci delayed until (time after induction) [8]: 9 h
CC(N)Cc1ccccc1 (stereo not shown) [amphetamine] | – | – | – | – | – | – | – | – | – | larger foci appear at earlier times | significant reduction of growth | effect on growth of WT yeast (WT yeast): no evidence of toxicity; time at which complete filling of the cell with AS-GFP occurs [8]: 6 h
C[n+]1ccc(-c2cc[n+](C)cc2)cc1 [paraquat, reference compound] | – | – | – | – | – | – | – | – | – | – | significant reduction of growth | effect on growth of WT yeast (WT yeast): no evidence of toxicity

Source: patent US11634434B2, “Bifunctional alpha-synuclein binding agents and uses thereof” (University of Saskatchewan, priority 2016, dated 2023)
